Target: human mGluR5 (Homo sapiens, UniProt P41594)
Assay: Cell-based functional Ca2+ mobilization assay, potentiation of glutamate EC20 response (H10H cell-line)
Details: H10H cell-line expressing recombinant human mGluR5; for Emax / Emax (%): in presence of glutamate EC20, normalized to maximal glutamate response; for EC50 / pEC50: potentiation in presence of glutamate EC20
Experimental: Human embryonic kidney (HEK) cells transfected with rat mGluR5 were plated in clear bottom assay plates for assay in a Functional Drug Screening System (FDSS). In the alternative assay, HEK cells transfected with human mGluR5 were plated for assay in the FDSS. In some cases the HEK cells transfected with human mGluR5 are the H10H cell line. Alternatively, the HEK cells transfected with human mGluR5 are the H12H cell line. […] The cells were loaded with a Ca^2+-sensitive fluorescent dye (e.g., Fluo-4), and the plates were washed and placed in the FDSS instrument. After establishment of a fluorescence baseline for about three seconds, the compounds of the present invention were added to the cells, and the response in cells was measured. Five minutes later, an mGluR5 agonist (e.g., glutamate, 3,5-dihydroxyphenylglycine, or quisqualate) was added to the cells, and the response of the cells was measured. Potentiation of the agonist response of mGluR5 by the compounds in the present invention was observed as an increase in response to non-maximal concentrations of agonist (here, glutamate) in the presence of compound compared to the response to agonist in the absence of compound.
The above described assay can be operated in two modes. In the first mode, a range of concentrations of the present compounds were added to cells, followed by a single fixed concentration of agonist. If a compound acted as a potentiator, an EC50 value for potentiation and a maximum extent of potentiation by the compound at this concentration of agonist was determined by non-linear curve fitting. In the second mode, several fixed concentrations of the present compounds were added to various wells on a plate, followed by a range of concentrations of agonist for each concentration of present compound; the EC50 values for the agonist at each concentration of compound were determined by non-linear curve fitting. A decrease in the EC50 value of the agonist with increasing concentrations of the present compounds (a leftward shift of the agonist concentration-response curve) is an indication of the degree of mGluR5 potentiation at a given concentration of the present compound. An increase in the EC50 value of the agonist with increasing concentrations of the present compounds (a rightward shift of the agonist concentration-response curve) is an indication of the degree of mGluR5 antagonism at a given concentration of the present compound. The second mode also indicates whether the present compounds also affect the maximum response to mGluR5 to agonists.
Human mGluR5a cDNA in pCMV6-XL6 mammalian expression plasmid was purchased from OriGene Technologies, Inc. (catalogue number SC326357) and subcloned into pcDNA3.1(−). Human embryonic kidney (HEK) 293A cells were then transfected with human mGluR5a pcDNA3.1(−) using LipofectAmine 2000 (Invitrogen) and monoclones were selected and tested for functional response using a Ca^2+ mobilization assay. Monoclones were named for the species (“H” for human) plus the location on the plate (e.g. “10H”).
HEK cells transfected with the human mGluR5a receptor were plated at 15,000 cells/well in clear-bottomed poly-D-lysine-coated assay plates (BD Falcon) in glutamate-glutamine-free growth medium and incubated overnight at 37° C. and 5% CO2. The cell-line used to obtain the data reported herein was the H10H cell-line expressing the human mGluR5 receptor. Although the H10H cell-line was used to obtain the data shown herein, the H12H cell-line expressing the human mGluR5 receptor can also be used in these assays. The following day, the growth medium was removed and the cells were washed with assay buffer containing 1× Hank's balanced salt solution (Invitrogen, Carlsbad, Calif.), 20 mM HEPES, 2.5 mM probenecid, pH 7.4 and left with 20 μL of this reagent. Following this step, the cells were loaded with calcium indicator dye, fluo-4 AM, to a final concentration of 2 μM and incubated for 40-45 min at 37° C. […]

Sequence of human mGluR5 (P41594 21-1180 isoform P41594-2 limits assumed): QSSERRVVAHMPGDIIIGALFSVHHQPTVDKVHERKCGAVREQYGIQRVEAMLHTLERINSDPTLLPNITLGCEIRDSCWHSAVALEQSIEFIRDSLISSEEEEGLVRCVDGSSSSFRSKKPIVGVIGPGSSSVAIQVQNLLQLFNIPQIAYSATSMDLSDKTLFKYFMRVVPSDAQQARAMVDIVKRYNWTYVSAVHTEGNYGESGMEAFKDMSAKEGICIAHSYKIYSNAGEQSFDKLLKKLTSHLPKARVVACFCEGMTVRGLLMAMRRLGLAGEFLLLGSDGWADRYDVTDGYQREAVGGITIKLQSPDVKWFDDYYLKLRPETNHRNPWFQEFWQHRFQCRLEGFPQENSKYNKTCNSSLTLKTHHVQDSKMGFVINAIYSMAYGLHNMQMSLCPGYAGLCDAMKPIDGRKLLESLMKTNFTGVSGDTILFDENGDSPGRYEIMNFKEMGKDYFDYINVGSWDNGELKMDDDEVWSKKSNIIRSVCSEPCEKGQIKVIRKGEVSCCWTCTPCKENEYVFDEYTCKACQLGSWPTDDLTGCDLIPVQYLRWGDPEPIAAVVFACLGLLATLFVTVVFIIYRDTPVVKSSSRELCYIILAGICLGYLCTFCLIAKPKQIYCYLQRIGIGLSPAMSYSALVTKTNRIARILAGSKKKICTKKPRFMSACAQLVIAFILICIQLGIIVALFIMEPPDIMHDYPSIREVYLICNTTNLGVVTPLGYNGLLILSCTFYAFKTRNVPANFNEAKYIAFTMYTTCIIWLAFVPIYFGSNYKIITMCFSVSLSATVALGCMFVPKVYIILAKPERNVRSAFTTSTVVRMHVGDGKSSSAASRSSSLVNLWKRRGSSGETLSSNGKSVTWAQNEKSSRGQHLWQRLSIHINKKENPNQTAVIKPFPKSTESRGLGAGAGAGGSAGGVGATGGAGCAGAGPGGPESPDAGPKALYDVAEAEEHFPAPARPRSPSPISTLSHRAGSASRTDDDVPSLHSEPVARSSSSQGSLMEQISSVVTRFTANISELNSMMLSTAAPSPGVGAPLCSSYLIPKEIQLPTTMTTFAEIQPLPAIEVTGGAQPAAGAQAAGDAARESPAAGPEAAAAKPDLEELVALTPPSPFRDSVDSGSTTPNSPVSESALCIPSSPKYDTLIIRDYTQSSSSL

Compound `O=C(c1ccc(Cl)s1)N1CCc2nc(COc3ccccc3)oc2C1` [Example B109] has an Emax of 73.5% and an EC50 of 66.1 nM.
With `O=C(c1cnc2ccccc2n1)N1CCc2nc(COc3ccccc3)oc2C1` [Example B93] the “Emax (%)” value was 52% and the pEC50 was 5.73.
`CC(C)(C)OCC(=O)N1CCc2nc(COc3ccccc3)oc2C1` [Example B55] was tested, and the Emax was 14%.
For `COCc1ccc(C(=O)N2CCc3nc(COc4ccccc4)oc3C2)o1` [Example B104], the Emax was 62% and the EC50 was > 10000 nM.
In the case of `O=C(c1cn[nH]c1)N1CCc2nc(COc3ccccc3)oc2C1` [Example B56], the “Emax (%)” value is reported as 50% and the pEC50 is reported as <5.
In the case of `N#Cc1cc(C(=O)N2CCc3nc(COc4ccccc4)oc3C2)ccn1` [Example B87], the “Emax (%)” value is reported as 72% and the pEC50 is reported as 5.89.
`CC(C)(C)C(=O)N1CCc2nc(COc3ccccc3)oc2C1` [Example B142] was tested, and the “mGluR5 activity type (footnote)” value was “**The indicated compound is a mGluR5 antagonist”.
For `O=C(c1c[nH]cn1)N1CCc2nc(COc3ccccc3)oc2C1` [Example B154], the Emax was 26% and the EC50 was > 30200 nM.
`O=C(c1ccc(=O)[nH]c1)N1CCc2nc(COc3ccccc3)oc2C1` [Example B139] was tested, and the Emax was 10% and the EC50 was > 30200 nM.
`O=C(c1ccc(F)cc1)N1CCc2nc(CCc3ccccc3)oc2C1` [Example B131, 5-[(4-fluorophenyl)carbonyl]-2-(2-phenylethyl)-4,5,6,7-tetrahydro[1,3]oxazolo[5,4-c]pyridine] was tested, and the Emax was 24% and the EC50 was > 30200 nM.
With `O=C(c1ccc(F)cc1)N1CCc2nc(COc3ccc(Br)cc3)oc2C1` [Example B129] the Emax was 27% and the EC50 was > 30200 nM.
`Cc1ncc(C(=O)N2CCc3nc(COc4ccccc4)oc3C2)cn1` [Example B135] was tested, and the Emax was 36% and the EC50 was > 10000 nM.
With `Cc1ccoc1C(=O)N1CCc2nc(COc3ccccc3)oc2C1` [Example B121] the “Emax (%)” value was 51% and the pEC50 was 6.72.
In the case of `N#Cc1cccc(OCc2nc3c(o2)CN(C(=O)c2ccc(F)cc2)CC3)c1` [Example B53], the Emax is reported as 66.5% and the EC50 is reported as 1260 nM.
For `O=C(COc1ccccc1)N1CCc2nc(COc3ccccc3)oc2C1` [Example B80], the Emax was 60% and the EC50 was 1910 nM.
For `N#Cc1cc(F)cc(C(=O)N2CCc3nc(COc4cccc(F)c4)oc3C2)c1` [Example B92], the “Emax (%)” value was 52% and the pEC50 was 6.73.
For `O=C(c1ccc[nH]1)N1CCc2nc(COc3ccccc3)oc2C1` [Example B58], the Emax was 31% and the EC50 was 603 nM.
In the case of `O=C(c1ccc(F)c(F)c1)N1CCc2nc(COc3ccccc3)oc2C1` [Example B17], the “Emax (%)” value is reported as 86% and the pEC50 is reported as 6.60.
In the case of `O=C(c1ccc(S(F)(F)(F)(F)F)cc1)N1CCc2nc(COc3ccccc3)oc2C1` [Example B52], the “Emax (%)” value is reported as 51% and the pEC50 is reported as 5.24.
With `O=C(c1ccc(F)cc1)N1CCc2nc(COc3cncc(F)c3)oc2C1` [Example B48] the “Emax (%)” value was 62% and the pEC50 was 5.49.
With `Cc1nc(C(=O)N2CCc3nc(COc4ccccc4)oc3C2)no1` [Example B161] the Emax was 20% and the EC50 was > 10000 nM.
`O=C(c1ccc(F)cn1)N1CCc2nc(COc3cccc(F)c3)oc2C1` [Example B45] was tested, and the “Emax (%)” value was 66% and the pEC50 was 5.51.
In the case of `O=C(N1CCc2nc(COc3ccccc3)oc2C1)C1(c2ccccc2)CC1` [Example B77], the “Emax (%)” value is reported as 62% and the pEC50 is reported as 6.00.
For `O=C(c1ncccc1Cl)N1CCc2nc(COc3ccccc3)oc2C1` [Example B74], the Emax was 57% and the EC50 was > 10000 nM.
In the case of `N#Cc1cc(Br)cc(OCc2nc3c(o2)CN(C(=O)c2ccc(F)cc2)CC3)c1` [Example B137], the “Emax (%)” value is reported as 24% and the pEC50 is reported as <4.52.
`N#Cc1ccccc1C(=O)N1CCc2nc(COc3ccccc3)oc2C1` [Example B46] was tested, and the Emax was 63% and the EC50 was 1620 nM.
In the case of `O=C(c1ccc(F)c(F)c1)N1CCc2nc(COc3cccc(F)c3)oc2C1` [Example B29], the “Emax (%)” value is reported as 75% and the pEC50 is reported as 6.62.
With `O=C(c1ccccn1)N1CCc2nc(COc3ccccc3)oc2C1` [Example B23] the “Emax (%)” value was 54% and the pEC50 was <5.
In the case of `O=C(Cc1c[nH]cn1)N1CCc2nc(COc3ccccc3)oc2C1.O=C(O)C(F)(F)F` [Example B155], the “Emax (%)” value is reported as 30% and the pEC50 is reported as <4.52.
With `O=C(c1ccc(F)cc1)N1CCc2nc(COc3ccccc3C(F)(F)F)oc2C1` [Example B130] the Emax was 22% and the EC50 was > 30200 nM.
`O=C(c1ccc(F)cc1)N1CCc2nc(COc3ccc(C(F)(F)F)cc3)oc2C1` [Example B128] was tested, and the “Emax (%)” value was 25% and the pEC50 was <4.52.
In the case of `O=C(c1ncccc1F)N1CCc2nc(COc3ccccc3)oc2C1` [Example B47], the Emax is reported as 56% and the EC50 is reported as > 10000 nM.
In the case of `O=C(CCc1ccccc1)N1CCc2nc(COc3ccccc3)oc2C1` [Example B64], the Emax is reported as 59% and the EC50 is reported as 813 nM.
With `O=C(c1cccnn1)N1CCc2nc(COc3ccccc3)oc2C1` [Example B162] the Emax was 17% and the EC50 was > 30200 nM.
`O=C(C1CC1)N1CCc2nc(COc3ccccc3)oc2C1` [Example B32] showed an Emax of 39% and an EC50 of 3020 nM.
In the case of `O=C(c1ccc(C(F)(F)F)o1)N1CCc2nc(COc3ccccc3)oc2C1` [Example B122], the “Emax (%)” value is reported as 68% and the pEC50 is reported as 6.67.
`N#Cc1cc(F)cc(OCc2nc3c(o2)CN(C(=O)c2ccc(F)cc2)CC3)c1` [Example B136] was tested, and the “Emax (%)” value was 45% and the pEC50 was <5.
In the case of `O=C(c1cc2ccccc2[nH]1)N1CCc2nc(COc3ccccc3)oc2C1` [Example B112], the “Emax (%)” value is reported as 12% and the pEC50 is reported as <4.52.
`O=C(c1coc2ccccc12)N1CCc2nc(COc3ccccc3)oc2C1` [Example B146] gave an Emax of 61% and an EC50 of 407 nM.
`Cc1cccc(C(=O)N2CCc3nc(COc4ccccc4)oc3C2)n1` [Example B44] was tested, and the “Emax (%)” value was 64% and the pEC50 was 5.7.
`Cc1ccc(C(=O)N2CCc3nc(COc4ccccc4)oc3C2)n1C` [Example B103] was tested, and the “Emax (%)” value was 78% and the pEC50 was 6.44.
In the case of `CC(=O)N1CCc2nc(COc3ccccc3)oc2C1` [Example B24], the Emax is reported as 53% and the EC50 is reported as > 10000 nM.
In the case of `Cn1cncc1C(=O)N1CCc2nc(COc3ccccc3)oc2C1` [Example B158], the Emax is reported as 27% and the EC50 is reported as > 30200 nM.
With `O=C(CC1CC1)N1CCc2nc(COc3ccccc3)oc2C1` [Example B2, 5-(cyclopropylacetyl)-2-(phenoxymethyl)-4,5,6,7-tetrahydro[1,3]oxazolo[5,4-c]pyridine] the Emax was 58% and the EC50 was 3550 nM.
`O=C(c1ncccn1)N1CCc2nc(COc3ccccc3)oc2C1` [Example B160] was tested, and the “Emax (%)” value was 16% and the pEC50 was <4.52.
With `O=C(c1ncc[nH]1)N1CCc2nc(COc3ccccc3)oc2C1` [Example B153] the Emax was 32% and the EC50 was > 30200 nM.
`O=C(c1cnco1)N1CCc2nc(COc3ccccc3)oc2C1` [Example B59] showed an Emax of 40.5% and an EC50 of 2950 nM.
`Cc1ncccc1C(=O)N1CCc2nc(COc3ccccc3)oc2C1` [Example B41] showed an Emax of 50% and an EC50 of 6030 nM.
`CC(C)(C#N)C(=O)N1CCc2nc(COc3ccccc3)oc2C1` [Example B62] showed an Emax of 34% and an EC50 of 339 nM.
With `O=C(c1ccc(F)cc1)N1CCc2nc(COc3ccccc3F)oc2C1` [Example B13] the Emax was 68% and the EC50 was 1150 nM.
Compound `O=C(c1ccc(F)cc1)N1CCc2nc(COc3ccc(F)c(F)c3)oc2C1` [Example B11] has an Emax of 60% and a pEC50 of 6.19.
`O=C(c1ccc(F)cc1)N1CCc2nc(/C=C/c3ccccc3)oc2CC1` [Example B31, 6-(4-fluorobenzoyl)-5,6,7,8-tetrahydro-2-[(E)-2-phenylethenyl]-4H-oxazolo[4,5-d]azepine] gave an Emax of 47% and an EC50 of 1820 nM.

From US9090632B2, “Bicyclic oxazole and thiazole compounds and their use as allosteric modulators of mGluR5 receptors” (Vanderbilt University, priority 2010, dated 2015)
